Patent publication US20210053957A1, “HERBICIDAL COMPOUNDS” (SYNGENTA PARTICIPATIONS AG, priority 2018, published 2021)

Experiments:
Assay in all cases: Post-emergence efficacy, glasshouse spray test
Type in all cases: in vivo
[1] = test system: Setaia fabei (SETFA); conditions: Application Rate 500 g/Ha, evaluated after 13 days; for pest or weed control at 500 g/ha: Setaria faberi, post-emergence, 312 h, read-out: Control of weed species after post-emergence application, SETFA (100=total damage to plant; 0=no damage to plant)
Procedure, shortened: (§1)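 Each value is a visual injury score (0 none, 100 total) read 13 days post-application. Plants were 14 days old at spraying and kept at 24/16° C, 14 h light.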

[2] = test system: Lolium perenne (LOLPE); conditions: Application Rate 500 g/Ha, evaluated after 13 days; for pest or weed control at 500 g/ha: Lolium perenne, post-emergence, 312 h, read-out: Control of weed species after post-emergence application, LOLPE (100=total damage to plant; 0=no damage to plant)
Procedure, shortened: as §1

[3] = test system: Chenopodium album (CHEAL); conditions: Application Rate 500 g/Ha, evaluated after 13 days; for pest or weed control at 500 g/ha: Chenopodium album, post-emergence, 312 h, read-out: Control of weed species after post-emergence application, CHEAL (100=total damage to plant; 0=no damage to plant)
Procedure, shortened: as §1

[4] = test system: Digitaria sanguinalis (DIGSA); conditions: Application Rate 500 g/Ha, evaluated after 13 days; for pest or weed control at 500 g/ha: Digitaria sanguinalis, post-emergence, 312 h, read-out: Control of weed species after post-emergence application, DIGSA (100=total damage to plant; 0=no damage to plant)
Procedure, shortened: as §1

[5] = test system: Ipomoea hederacea (IPOHE); conditions: Application Rate 500 g/Ha, evaluated after 13 days; for pest or weed control at 500 g/ha: Ipomoea hederacea, post-emergence, 312 h, read-out: Control of weed species after post-emergence application, IPOHE (100=total damage to plant; 0=no damage to plant)
Procedure, shortened: as §1

[6] = test system: Euphorbia heterophylla (EPHHL); conditions: Application Rate 500 g/Ha, evaluated after 13 days; for pest or weed control at 500 g/ha: Euphorbia heterophylla, post-emergence, 312 h, read-out: Control of weed species after post-emergence application, EPHHL (100=total damage to plant; 0=no damage to plant)
Procedure, shortened: as §1

[7] = test system: Eleusine indica (ELEIN); conditions: Application Rate 500 g/Ha, evaluated after 13 days; for pest or weed control at 500 g/ha: Eleusine indica, post-emergence, 312 h, read-out: Control of weed species after post-emergence application, ELEIN (100=total damage to plant; 0=no damage to plant)
Procedure, shortened: as §1

[8] = test system: Amaranthus palmeri (AMAPA); conditions: Application Rate 500 g/Ha, evaluated after 13 days; for pest or weed control at 500 g/ha: Amaranthus palmeri, post-emergence, 312 h, read-out: Control of weed species after post-emergence application, AMAPA (100=total damage to plant; 0=no damage to plant)
Procedure, shortened: as §1

[9] = test system: Echinochloa crus-galli (ECHCG); conditions: Application Rate 500 g/Ha, evaluated after 13 days; for pest or weed control at 500 g/ha: Echinochloa crus-galli, post-emergence, 312 h, read-out: Control of weed species after post-emergence application, ECHCG (100=total damage to plant; 0=no damage to plant)
Procedure, shortened: as §1

SMILES | Control of weed species after post-emergence application, SETFA (100=total damage to plant; 0=no damage to plant) [1] | Control of weed species after post-emergence application, LOLPE (100=total damage to plant; 0=no damage to plant) [2] | Control of weed species after post-emergence application, CHEAL (100=total damage to plant; 0=no damage to plant) [3] | Control of weed species after post-emergence application, DIGSA (100=total damage to plant; 0=no damage to plant) [4] | Control of weed species after post-emergence application, IPOHE (100=total damage to plant; 0=no damage to plant) [5] | Control of weed species after post-emergence application, EPHHL (100=total damage to plant; 0=no damage to plant) [6] | Control of weed species after post-emergence application, ELEIN (100=total damage to plant; 0=no damage to plant) [7] | Control of weed species after post-emergence application, AMAPA (100=total damage to plant; 0=no damage to plant) [8] | Control of weed species after post-emergence application, ECHCG (100=total damage to plant; 0=no damage to plant) [9] | pest or weed control at 500 g/ha [1] [%] | pest or weed control at 500 g/ha [2] [%] | pest or weed control at 500 g/ha [3] [%] | pest or weed control at 500 g/ha [4] [%] | pest or weed control at 500 g/ha [5] [%] | pest or weed control at 500 g/ha [6] [%] | pest or weed control at 500 g/ha [7] [%] | pest or weed control at 500 g/ha [8] [%] | pest or weed control at 500 g/ha [9] [%]
CCOC(=O)c1coc(-c2cc[n+](CCS(=O)(=O)O)nc2)n1 [Compound A124] | 70 | 40 | 30 | 90 | 40 | 90 | 80 | 90 | 40 |  |  |  |  |  |  |  |  | 
CNC(=O)c1coc(-c2cc[n+](CCS(=O)(=O)O)nc2)n1 [Compound A125] | 70 | 40 | 10 | 60 | 10 | 40 | 40 | 30 | 60 |  |  |  |  |  |  |  |  | 
CCOC(=O)c1coc(-c2cc[n+](CCC(=O)O)nc2)n1 [Compound A126] |  |  |  |  |  |  |  |  |  | 70 | 60 | 70 | 90 | 30 | 70 | 90 | 90 | 60
CNC(=O)c1coc(-c2cc[n+](CCC(=O)O)nc2)n1 [Compound A127] |  |  |  |  |  |  |  |  |  | 70 | 20 | 100 | 90 | 60 | 70 | 70 | 100 | 80
COC(=O)CCC[n+]1ccc(-c2nc(C)co2)cn1 [Compound A128] |  |  |  |  |  |  |  |  |  | 90 | 60 | 20 | 90 | 20 | 70 | 100 | 90 | 80
CNC(=O)c1oc(-c2cc[n+](CCC(=O)O)nc2)nc1C [Compound A129] |  |  |  |  |  |  |  |  |  | 100 | 60 | 70 | 70 | 80 | 90 | 90 | 100 | 60
CCOC(=O)c1oc(-c2cc[n+](CCC(=O)O)nc2)nc1C [Compound A130] |  |  |  |  |  |  |  |  |  | 30 | 50 | 50 | 60 | 50 | 100 | 80 | 100 | 60
CCOC(=O)c1oc(-c2cc[n+](CCC(=O)OC)nc2)nc1C [Compound A131] |  |  |  |  |  |  |  |  |  | 20 | 10 | 0 | 30 | 10 | 10 | 10 | 10 | 20
Cc1coc(-c2cc[n+](CC(=O)O)nc2)n1 [Compound A132] |  |  |  |  |  |  |  |  |  | 80 | 50 | 70 | 90 | 10 | 70 | 90 | 90 | 90
COC(=O)C[n+]1ccc(-c2nc(C)co2)cn1 [Compound A133] |  |  |  |  |  |  |  |  |  | 0 | 0 | 0 | 20 | 10 | 0 | 10 | 0 | 10
Cc1coc(-c2cc[n+](CCOS(=O)(=O)[O-])nc2)n1 [Compound A134] |  |  |  |  |  |  |  |  |  | 70 | 40 | 30 | 60 | 50 | 70 | 80 | 90 | 70
Cc1coc(-c2cc[n+](CCCC(=O)O)nc2)n1 [Compound A135] |  |  |  |  |  |  |  |  |  | 90 | 40 | 20 | 90 | 10 | 90 | 80 | 90 | 90
Cc1coc(-c2cc[n+](CCCS(=O)(=O)[O-])nc2)n1 [Compound A136] |  |  |  |  |  |  |  |  |  | 80 | 60 | 30 | 70 | 20 | 70 | 60 | 70 | 40
CNC(=O)c1oc(-c2cc[n+](CCC(=O)OC)nc2)nc1C [Compound A137] |  |  |  |  |  |  |  |  |  | 30 | 10 | 10 | 50 | 10 | 20 | 30 | 20 | 40
O=C(O)CC[n+]1ccc(-c2cnns2)cn1 [Compound A138] |  |  |  |  |  |  |  |  |  | 30 | 0 | 40 | 60 | 70 | 100 | 70 | 90 | 40
O=C(O)CC[n+]1ccc(-c2csnn2)cn1 [Compound A139, 3-[4-(thiadiazol-4-yl)pyridazin-1-ium-1-yl]propanoic acid 2,2,2-trifluoroacetate] |  |  |  |  |  |  |  |  |  | 60 | 10 | 70 | 70 | 60 | 100 | 70 | 80 | 60
Cc1nnc(-c2cc[n+](CCC(=O)O)nc2)o1 [Compound A140] |  |  |  |  |  |  |  |  |  | 70 | 10 | 0 | 70 | 0 | 0 | 90 | 10 | 20
Nc1nsc(-c2cc[n+](CCS(=O)(=O)[O-])nc2)n1 [Compound A141] |  |  |  |  |  |  |  |  |  | 50 | 30 | 100 | 10 | 100 | 100 | 10 | 100 | 30
